Measurements reported in patent US12655124B2, “Heterocyclic compounds as modulators of stimulator of interferon genes (STING)” (RYVU THERAPEUTICS S.A., priority 2019, dated 2026).
Where a name gives a salt, the structure may show the parent alone.

Columns and labels:
[1] = system: interferon regulatory factor (IRF) pathway in THP-1 dual cells; experiment: THP-1 Dual reporter assay, IRF pathway (luciferase); type: cell-based; settings: Homo sapiens, THP1-Dual, 18 h stimulation, luminescence
Method: (§1) THP-1 Dual Reporter Assay
(§2) Compounds of the present invention were tested for their activity using THP-1 dual cells (Invivogen, cat no. thpd-nfis) allowing for simultaneous study of NF-κB pathway and the interferon regulatory factor (IRF) pathway. THP-1 dual cells contain luciferase reporter gene under the control of an ISG54 (interferon-stimulated gene) minimal promoter in conjunction with five interferon-stimulated response elements and a secreted embryonic alkaline phosphatase reporter gene under the control an IFN (interferon)-β minimal promoter fused to five copies of the NF-κB consensus transcriptional response element with three copies of the c-Rel binding site. Following 18 h of stimulation with STING agonist, medium was collected and transferred onto fresh cell culture plate. To verify activity of the IRF pathway, luminescence activity was measured with standard laboratory plate reader immediately after addition 10 μl of the medium to 40 or 50 μl of luminescence reagent (Invivogen, cat. No. rep-qlc2). To verify activity of NF-κB pathway, 10 or 20 μl of the medium was mixed with 80 μl of a detection medium (Invivogen, cat. No. rep-qb2) and incubated for 1 or 2 hours at 37° C. in a humidified atmosphere containing 5% CO2. Next, absorbance at 630 or 655 nm was recorded using standard laboratory plate reader.

[2] = system: NF-κB pathway in THP-1 dual cells; experiment: THP-1 Dual reporter assay, NF-κB pathway (SEAP); type: cell-based; settings: Homo sapiens, THP1-Dual, 18 h stimulation, absorbance at 630 or 655 nm, read-out: THP1 Dual EC50 (μM) NFkB
Method: as §1, §2

| Structure (SMILES) | EC50 [1] | EC50 [2] |
| --- | --- | --- |
| Cc1ccc(N2CCC[C@H](N(Cc3ccnc(C)c3)Cc3cn(C4CC4)c4nc(N)c(F)cc4c3=O)C2)cn1 [Example 36, 7-amino-1-cyclopropyl-6-fluoro-3-({[(3S)-1-(6-methylpyridin-3-yl)piperidin-3-yl][(2-methylpyridin-4-yl)methyl]amino}methyl)-1,4-dihydro-1,8-naphthyridin-4-one] | ≤ 1 µM | ≤ 1 µM |
| Cc1cc(CN(Cc2cn(C3CC3)c3cc(OCCO)c(F)cc3c2=O)[C@H]2CCCN(c3ccc(Cl)nc3)C2)ccn1 [Example 97, 3-({[(3S)-1-(6-chloropyridin-3-yl)piperidin-3-yl][(2-methylpyridin-4-yl)methyl]amino}methyl)-1-cyclopropyl-6-fluoro-7-(2-hydroxyethoxy)-1,4-dihydroquinolin-4-one Hydrochloride] | ≤ 1 µM | ≤ 1 µM |
| Cc1ccc(N2CCC[C@H](N(Cc3ccnc(C)c3)Cc3cn(C4CC4)c4cc(CN)c(F)cc4c3=O)C2)cn1 [Example 80, 7-(aminomethyl)-1-cyclopropyl-6-fluoro-3-({[(3S)-1-(6-methylpyridin-3-yl)piperidin-3-yl][(2-methylpyridin-4-yl)methyl]amino}methyl)-1,4-dihydroquinolin-4-one] | ≤ 1 µM | ≤ 1 µM |
| Cc1cc(CN(Cc2cn(C3CC3)c3cc(OCCO)c(F)cc3c2=O)[C@H]2CCCN(c3cccnc3)C2)ccn1 [Example 84, 1-cyclopropyl-6-fluoro-7-(2-hydroxyethoxy)-3-({[(2-methylpyridin-4-yl)methyl][(3S)-1-(pyridin-3-yl)piperidin-3-yl]amino}methyl)-1,4-dihydroquinolin-4-one Hydrochloride] | ≤ 1 µM | ≤ 1 µM |
| Cc1ccc(N2CCC[C@H](N(Cc3ccnc(C)c3)Cc3cn(C4CC4)c4cc(-n5cc(C(N)=O)nn5)c(F)cc4c3=O)C2)cn1 [Example 60, 1-[1-Cyclopropyl-6-fluoro-3-({[(3S)-1-(6-methylpyridin-3-yl)piperidin-3-yl][(2-methylpyridin-4-yl)methyl]amino}methyl)-4-oxo-1,4-dihydroquinolin-7-yl]-1H-1,2,3-triazole-4-carboxamide] | ≤ 1 µM | ≤ 1 µM |
| Cc1ccc(N2CCC[C@H](N(Cc3ccnc(C)c3)Cc3cn(C)c4cc(N5CC[C@H](N)C(F)(F)C5)ccc4c3=O)C2)cn1 (single isomer, unassigned) [Example 51] | ≤ 1 µM | 1 to 10 µM |
| Cc1cc(CN(Cc2cn(C)c3ccccc3c2=O)[C@H]2CCCN(c3cncc(CO)c3)C2)ccn1 [Example 44, 3-({[(3S)-1-[5-(hydroxymethyl)pyridin-3-yl]piperidin-3-yl][(2-methylpyridin-4-yl)methyl]amino}methyl)-1-methyl-1,4-dihydroquinolin-4-one] | ≥ 10 µM | ≥ 10 µM |
| Cc1ccc(N2CCC[C@H](N(Cc3ccnc(C)c3)Cc3cn(C4CC4)c4cc(-n5cc(CO)nn5)c(F)cc4c3=O)C2)cn1 [Example 61, 1-Cyclopropyl-6-fluoro-7-[4-(hydroxymethyl)-1H-1,2,3-triazol-1-yl]-3-({[(3S)-1-(6-methylpyridin-3-yl)piperidin-3-yl][(2-methylpyridin-4-yl)methyl]amino}methyl)-1,4-dihydroquinolin-4-one] | ≤ 1 µM | ≤ 1 µM |
| COc1cc(CN(Cc2cn(C3CC3)c3cc(N4CC[C@@H](O)C4)c(F)cc3c2=O)[C@H]2CCCN(c3cccnc3)C2)ccn1 [Example 65, 1-cyclopropyl-6-fluoro-7-[(3R)-3-hydroxypyrrolidin-1-yl]-3-({[(2-methoxypyridin-4-yl)methyl][(3S)-1-(pyridin-3-yl)piperidin-3-yl]amino}methyl)-1,4-dihydroquinolin-4-one Hydrochloride] | ≤ 1 µM | ≤ 1 µM |
| Cc1cc(CN(Cc2cn(C)c3ccccc3c2=O)[C@H]2CCCN(c3ccc(CCO)nc3)C2)ccn1 [Example 43, 3-({[(3S)-1-[6-(2-hydroxyethyl)pyridin-3-yl]piperidin-3-yl][(2-methylpyridin-4-yl)methyl]amino}methyl)-1-methyl-1,4-dihydroquinolin-4-one] | 1 to 10 µM | 1 to 10 µM |
